Reference: US20030224416A1, “Schizophrenia related gene” (priority 2002, published 2003)

How the values were obtained:
Kv3.1 α-subunit mRNA = assay: Experiment 1: in situ hybridization of Kv3.1 α-subunit mRNA in brain, chronic PCP rat model of schizophrenia with antipsychotic co-treatment; format: in vivo; details: for Kv3.1 α-subunit mRNA expression: PCP-Veh (PCP 2.24 mg/kg i.p.)
Kv3.2 mRNA = assay: Experiment 2: in situ hybridisation of Kv3.2 mRNA in rat brain after chronic intermittent PCP (YRING model); format: in vivo
Protocol: (§1) In a second experiment using different method for in situ hybridisation, the effect of chronic PCP treatment on Kv3.1, Kv3.2 and Kv3.3 mRNA were examined. […] Animals were treated according to the YRING model (FIG. 1) and killed by cervical dislocation 72 hours after the last exposure to PCP. The brains were stored at −70° C. until required.
(§2) 20 μm coronal sections were cut on a cryostat at −20° C. and collected onto poly-L-lysine coated slides. The sections were fixed, dehydrated and stored under ethanol at 4° C. until required. […] On the day of in situ hybridization, the sections from the chronic study were allowed to dry at room temperature then hybridized with the appropriate probe overnight at 42° C. The sections were then washed, dehydrated and air-dried before being exposed to x-ray film for 7-10 days.
(§3) The quantification of mRNA expression was carried out using computer-based densitometry (MCID 5). Bilateral relative optical density measurements were taken from duplicate sections from each animal (n=8-10 per treatment group for the chronic study). The results were analyzed using individual t-tests for each brain region. Statistical significance was defined as p<0.05, again after correction for multiple comparisons using the sequential Bonferroni correction factor.

Kv3.3 mRNA = assay: Experiment 2: in situ hybridisation of Kv3.3 mRNA in rat brain after chronic intermittent PCP (YRING model); format: in vivo
Protocol: as §1, §2, §3

Kv3.1 mRNA = assay: Experiment 2: in situ hybridisation of Kv3.1 mRNA in rat brain after chronic intermittent PCP (YRING model); format: in vivo
Protocol: as §1, §2, §3

schizophrenia = details: patients; cited from earlier work
[1] = ventral part of the reticular thalamic nucleus

## c1ccc(C2(N3CCCCC3)CCCCC2)cc1 [PCP, phencyclidine]
Kv3.1 α-subunit mRNA; ACg
  Kv3.1 α-subunit mRNA expression: 15.01 PSL/mm^2
Kv3.1 α-subunit mRNA; AcbC
  Kv3.1 α-subunit mRNA expression: 8.48 PSL/mm^2
Kv3.1 α-subunit mRNA; AcbS
  Kv3.1 α-subunit mRNA expression: 10.62 PSL/mm^2
Kv3.1 α-subunit mRNA; Au1
  Kv3.1 α-subunit mRNA expression: 18.08 PSL/mm^2
Kv3.1 α-subunit mRNA; CA1pd
  Kv3.1 α-subunit mRNA expression: 15.90 PSL/mm^2
Kv3.1 α-subunit mRNA; CA2pd
  Kv3.1 α-subunit mRNA expression: 18.61 PSL/mm^2
Kv3.1 α-subunit mRNA; CA3pd
  Kv3.1 α-subunit mRNA expression: 32.94 PSL/mm^2
Kv3.1 α-subunit mRNA; DGgd
  Kv3.1 α-subunit mRNA expression: 38.63 PSL/mm^2
Kv3.1 α-subunit mRNA; DLStr
  Kv3.1 α-subunit mRNA expression: 5.87 PSL/mm^2
Kv3.1 α-subunit mRNA; IL
  Kv3.1 α-subunit mRNA expression: 12.28 PSL/mm^2
Kv3.1 α-subunit mRNA; IO
  Kv3.1 α-subunit mRNA expression: 16.48 PSL/mm^2
Kv3.1 α-subunit mRNA; M1
  Kv3.1 α-subunit mRNA expression: 15.88 PSL/mm^2
Kv3.1 α-subunit mRNA; M2
  Kv3.1 α-subunit mRNA expression: 14.38 PSL/mm^2
Kv3.1 α-subunit mRNA; MG
  Kv3.1 α-subunit mRNA expression: 26.93 PSL/mm^2
Kv3.1 α-subunit mRNA; MM
  Kv3.1 α-subunit mRNA expression: 24.34 PSL/mm^2
Kv3.1 α-subunit mRNA; Pir
  Kv3.1 α-subunit mRNA expression: 40.65 PSL/mm^2
Kv3.1 α-subunit mRNA; PrL
  Kv3.1 α-subunit mRNA expression: 9.83 PSL/mm^2
Kv3.1 α-subunit mRNA; RSa
  Kv3.1 α-subunit mRNA expression: 17.96 PSL/mm^2
Kv3.1 α-subunit mRNA; RSg
  Kv3.1 α-subunit mRNA expression: 20.38 PSL/mm^2
Kv3.1 α-subunit mRNA; SN
  Kv3.1 α-subunit mRNA expression: 12.82 PSL/mm^2
Kv3.1 α-subunit mRNA; VMStr
  Kv3.1 α-subunit mRNA expression: 6.15 PSL/mm^2
Kv3.1 α-subunit mRNA; VO
  Kv3.1 α-subunit mRNA expression: 19.85 PSL/mm^2
Kv3.1 α-subunit mRNA; dRt
  Kv3.1 α-subunit mRNA expression: 48.80 PSL/mm^2
Kv3.1 α-subunit mRNA; dorsal part of the reticular nucleus of the thalamus (dRt)
  change in Kv3.1 α-subunit mRNA expression after chronic PCP treatment: −15%
Kv3.1 α-subunit mRNA; dorsolateral striatum (DLStr)
  change in Kv3.1 α-subunit mRNA expression after chronic PCP treatment: −16%
Kv3.1 α-subunit mRNA; prelimbic region of the prefrontal cortex (PrL)
  change in Kv3.1 α-subunit mRNA expression after chronic PCP treatment: −31%
Kv3.1 α-subunit mRNA; vRt
  Kv3.1 α-subunit mRNA expression: 45.07 PSL/mm^2
Kv3.2 mRNA; anteromedial thalamic nucleus
  change in Kv3.2 mRNA expression after chronic intermittent PCP: −9%
Kv3.2 mRNA; prelimbic cortex
  change in Kv3.2 mRNA expression after chronic intermittent PCP: +16%
Kv3.2 mRNA; primary motor cortex
  change in Kv3.2 mRNA expression after chronic intermittent PCP: +13%
Kv3.2 mRNA; regions other than prelimbic cortex, primary motor cortex, anteromedial thalamic nucleus
  Kv3.2 mRNA expression change after chronic intermittent PCP: No significant changes were observed
Kv3.3 mRNA; anterodorsal thalamic nucleus
  change in Kv3.3 mRNA expression after chronic intermittent PCP: +21%
Kv3.3 mRNA; prelimbic cortex
  change in Kv3.3 mRNA expression after chronic intermittent PCP: +18%
Kv3.3 mRNA; regions other than prelimbic, ventral orbital cortex, AD, vRt
  Kv3.3 mRNA expression change after chronic intermittent PCP: No other changes were observed in any other regions
Kv3.3 mRNA; ventral orbital cortex
  change in Kv3.3 mRNA expression after chronic intermittent PCP: +14%
Kv3.3 mRNA; [1]
  change in Kv3.3 mRNA expression after chronic intermittent PCP: +33%
Kv3.1 mRNA; prelimbic cortex
  change in Kv3.1 mRNA expression after chronic intermittent PCP: −23%
Kv3.1 mRNA; regions other than prelimbic cortex and vRt
  Kv3.1 mRNA expression change after chronic intermittent PCP: No other changes were observed in any other regions
Kv3.1 mRNA; [1]
  change in Kv3.1 mRNA expression after chronic intermittent PCP: −19%

## O=C(CCCN1CCC(O)(c2ccc(Cl)cc2)CC1)c1ccc(F)cc1 [haloperidol]
schizophrenia
  action against the negative symptoms and cognitive dysfunction of schizophrenia: ineffective
  attenuating the positive symptoms of schizophrenia: effective
